Our source for the MIC values is ChEMBL document CHEMBL1153711, “Synthesis and antimycobacterial evaluation of novel 5,6-dimethoxy-1-oxo-2,5-dihydro-1H-2-indenyl-5,4-substituted phenyl methanone analogues” (Bioorg Med Chem Lett, 2009).

The test system of this experiment is Mycobacterium tuberculosis. Kind of experiment: Antimycobacterial activity against isoniazid-resistant Mycobacterium tuberculosis by agar dilution method. In kind it is functional. In general terms: In agar dilution, organisms are placed on agar that contains the substance at set levels.

In brackets after ≈: the same amount, converted by molar mass.

As to `COc1cc2c(cc1OC)C(=O)C(C(=O)c1c(Cl)cccc1Cl)C2` (stereo not drawn), the lowest concentration to inhibit growth (MIC) was 4.96 µM (≈ 1.81 µg/mL). The figure for `COc1cc2c(cc1OC)C(=O)C(C(=O)c1cccc([N+](=O)[O-])c1)C2` (stereo not drawn) is 8.72 µM (≈ 2.98 µg/mL). The figure for `COc1cc2c(cc1OC)C(=O)C(C(=O)c1ccc(Br)cc1)C2` (stereo not drawn) is 11.7 µM (≈ 4.41 µg/mL); for `COc1cc2c(cc1OC)C(=O)C(C(=O)c1ccc(C#N)cc1)C2` (stereo not drawn) it is above 6.25 µM; for `COc1cc2c(cc1OC)C(=O)C(C(=O)c1ccc(N(C)C)cc1)C2` (stereo not drawn) it is 8.78 µM (≈ 2.98 µg/mL). `COc1ccc(C(=O)C2Cc3cc(OC)c(OC)cc3C2=O)cc1` (stereo not drawn): the MIC (as a rule, the smallest concentration in the dilution series that meets the test's criterion for growth inhibition) was above 6.25 µM.

As for `COc1cc2c(cc1OC)C(=O)C(C(=O)c1ccc(Cl)cc1)C2` (stereo not drawn), the MIC amounted to 8.2 µM (≈ 2.71 µg/mL). The compound `COc1cc2c(cc1OC)C(=O)C(C(=O)c1ccccc1)C2` (stereo not drawn) registered an MIC of 11.6 µM (≈ 3.43 µg/mL). The figure for `COc1ccc(C(=O)C2Cc3cc(OC)c(OC)cc3C2=O)cc1OC` (stereo not drawn) is above 6.25 µM; for `COc1cc2c(cc1OC)C(=O)C(C(=O)c1cc(OC)c(OC)c(OC)c1)C2` (stereo not drawn) it is above 6.25 µM; for `COc1cc2c(cc1OC)C(=O)C(C(=O)c1ccc(F)cc1)C2` (stereo not drawn) it is 0.1 µM (≈ 0.0314 µg/mL). The figure for `COc1cc2c(cc1OC)C(=O)C(C(=O)c1ccccc1Cl)C2` (stereo not drawn) is 3.72 µM (≈ 1.23 µg/mL); for `NNC(=O)c1ccncc1` [ISONIAZID] it is 11.6 µM (≈ 1.59 µg/mL).
